The source of these data is patent US12083084B2, “Method for enhancing energy production and metabolism in cells” (REPLICON HEALTH OY, priority 2013, dated 2024).

Assay [1] can be described thus: Blood pressure (hypertension) in study subjects. Type of assay: in vivo, human. As to the method:
FIG. 12 depicts that hypertension was measured in two study subjects out of eight (subject 4 and 5). Subject 5 was the only person with clearly elevated blood pressure. (For other study subjects 1-3 and 6-8 blood pressures were at normal level.) Subject 5 blood pressure was first observed without any treatment for 6 days (from 20 of Jan. to 26 of Jan. 2013). After that subject 5 received twice a day 4 mg/kg of DGA mixed to water for 10 days. […] Subject 4 received 1×4 mg/k/day of DGA for 3 weeks.
FIG. 12a: Hypertension, subject 5 (averages of three measurements. DGA dosing started on 26th of January and ended on 3rd of February. Dose 2×4 mg/kg/day).
FIG. 12b: Hypertension, subject 4 (averages of three measurements. Subject 4 received 1×4 mg/kg/day of DGA for 3 weeks).

Assay [2] has as its system human primary hepatocytes. Put plainly: NAD+/NADH quantification in human hepatocytes. Type of assay: cell-based. On the set-up: NADtot / NADH / NAD+ / NAD+/NADH: unit not given here. The note with it: 48 h + 3 h. An excerpt: For the measurement of total NAD (NADtot=NADH+NAD^+) and NAD^+/NADH ratio, a NAD^+/NADH Quantification kit (MAK037) from Sigma was used. NAD functions as an electron carrier, fluctuating between the oxidized (NAD^+) and reduced (NADH) forms. In addition, NAD^+ plays critical roles in ADP-ribosylation reaction and as a substrate for sirtuins. According to the Sigma instruction, the NAD^+/NADH Quantification kit (Sigma) provides a convenient tool for sensitive detection of NAD, NADH and their ratio without requirement to purify them from samples. Important to notice is that the kit measures NADH and NAD^+ in whole cell including all cell organelles and compartments. Mitochondrial matrix is clearly dominant NADH producer from TCA and beta oxidation (consuming naturally the same amount of NAD^+ in redox reactions). Importantly, formed NADH is also typically oxidized into NAD^+ in the matrix by Complex I in ETC. As is well known anaerobic carbohydrate metabolism, i.e. glycolysis, in cytosol also consumes NAD^+ and produces NADH.
Cell culture in NADH-tests was like in Example 1.1. The change of the medium with DGAcs was conducted at 0 h, 24 h and 48 h. NAD measurements were made at 48+3 h in all cases. For CDP also HPA was tested, and for DOO no new nutrition at 48 h was added, i.e. test was conducted in fasting conditions.

Assay [3] concerns Mitochondria of Primary Rat Cortical Neurons. Put plainly: Mitochondrial Ca2+-uptake in rat cortical neurons (fluorescent imaging). Type of assay: cell-based. The note with it: 50 ug/ml for 24 h, N = 3. On the procedure: Fluorescent imaging. Imaging experiments were performed at 7 DIV. The cells were loaded with fluorescent dyes (fura4F, fura-ff and rhodamine 123) in cell culture medium at 37° C. 1 h, 5 μM for each dye. Then cells were washed with Mg^2+-free Locke's buffer containing 1.3 mM Ca^2+, moved to the microscope stage, and imaging was performed at room temperature. […] For delayed calcium deregulation experiments a lower affinity Ca^2+-indicator FuraFF (Kd 5.5 μM) was used to avoid a saturation of the signal.
In this study a zero control and one DGAcs group of primary rat cortical neurons was cultivated normally without DGAcs until 6 DIV, and then the DGAcs group was treated with 50 μg/ml DGAcs for 24 hours. After that culture medium was replaced by Mg^2+-free Locke's buffer containing 50 μg/ml DGAcs and imaging experiments were performed at room temperature at 7 DIV.
50 μM NMDA in the presence of 10 μM glycin in Mg^2+-free buffer was used to stimulate the cells.
For complete mitochondrial depolarization and release of Ca^2+ accumulated in mitochondria 2 μM protonophore FCCP was used in the presence of NMDA-receptors inhibitor MK801 (2 μM).

Assay [4] is described as follows: Rate of ethanol oxidation in rats. The note with it: AA rats given ethanol (1.2 per mille), not statistically significant. Type of assay: in vivo, rat. From the text:
In this experiment nutrition intake, except of course for DGAcs, was controlled to be exactly the same during the experimental day, and three day before the experiment. For AA rats, that are used to alcohol but didn't receive any alcohol in 3 day before the experiment, catabolic redox-activity in the cytosol was controlled by giving rats ethanol (equaling 1.2 per mille blood alcohol concentration, which represents only mild alcohol intoxication to the AA rats). The rate of ethanol oxidation remained the same in all groups.
Experimental session started at 8:00 to 9:00 am. To diminish possible pain during the experiments, all animals were injected subcutaneously with buprenorphine (0.01 mg/kg) a few minutes before the blood samples. During the experimental session no difference in other metabolic activity, e.g. rate of ethanol oxidation, between the control and treatment group was detected from blood samples. […] The resulting supernatants were used for free glycerol measurement with an enzymatic end point commercial assay kit (Boehringer-Mannheim, R-Biopharm, Darmstadt, Germany) according to the manufacturer's protocol except that the assays were modified for use with small volumes of supernatant using a 96-well microplate reader (Labsystems Multiskan RS, Helsinki, Finland). […]

Setting [5] is: donor alpha, new nutrition at 48 h, N = 5, 1.4 (μM).
Setting [6] is: donor alpha, new nutrition at 48 h, N = 5, 14 (μM).
Setting [7] is: donor one, new nutrition at 48 h, N = 5, 1.4 (μM).
Setting [8] is: donor one, new nutrition at 48 h, N = 5, 14 (μM).
Setting [9] is: donor three, no new nutrition at 48 h (fasting), N = 3, 1.4 (μM).
Where [10] appears, read: donor three, no new nutrition at 48 h (fasting), N = 3, 14 (μM).

Each structure is given as a SMILES string.

For the molecule `O=C(O)[C@H](O)CO` [DGA, D-glyceric acid], the blood pressure result in assay [1] (subject 4, 1×4 mg/kg/day for 3 weeks) is on record as “declined also somewhat”. The “diastolic blood pressure after treatment” value in assay [1] (subject 5, clearly elevated blood pressure (102 or 104 before), twice a day for 10 days) was approximately 90. The “systolic blood pressure after treatment” value in assay [1] (subject 5, clearly elevated blood pressure (roughly 180 before), twice a day for 10 days) is recorded as approximately 160.
For the molecule `O.O.O=C([O-])[C@H](O)CO.O=C([O-])[C@H](O)CO.[Ca+2]` [DGAcs, D-glyceric acid, calcium salt dehydrate], the “Change in NAD+/NADH vs. Control” value in assay [2] (setting [5]) is on record as −53%; in assay [2] (setting [6]) it was −62%; in assay [2] (setting [7]), −39.3%; in assay [2] (setting [8]) it was −87.2%; in assay [2] (setting [9]) it was −64.6%; in assay [2] (setting [10]) it was −24.0%. The “NAD+” value in assay [2] (setting [5]) came out at 0.009; in assay [2] (setting [6]), 0.007; in assay [2] (setting [7]), 0.040; in assay [2] (setting [8]), 0.009; in assay [2] (setting [9]), 0.004; in assay [2] (setting [10]) it was 0.009. The “NAD+/NADH” value was 0.040 in assay [2] (setting [5]); 0.032 in assay [2] (setting [6]); 0.139 in assay [2] (setting [7]); 0.029 in assay [2] (setting [8]); 0.017 in assay [2] (setting [9]); 0.037 in assay [2] (setting [10]). For the same molecule, the NADH in assay [2] (setting [5]) was determined as 0.222; in assay [2] (setting [6]) it was 0.225; in assay [2] (setting [7]) it was 0.289; in assay [2] (setting [8]), 0.294; in assay [2] (setting [9]) it was 0.239; in assay [2] (setting [10]), 0.232. The NADtot worked out at 0.231 in assay [2] (setting [5]); 0.232 in assay [2] (setting [6]); 0.329 in assay [2] (setting [7]); 0.302 in assay [2] (setting [8]); 0.243 in assay [2] (setting [9]); 0.240 in assay [2] (setting [10]). Also, the “Average Ca release, FCCP” value in assay [3] (2 μM FCCP + MK801 (complete mitochondrial depolarization)) was 0.475 *). Moreover, in assay [3] (50 μM NMDA), the “Average Ca release, peak NMDA” value is reported as 0.219. The “Average Ca release, baseline Ca” value in assay [3] is 0.070. Moreover, the “rate of ethanol oxidation, maximum acceleration compared to control” value in assay [4] is listed as approximately 3.6%.
